Experimental data published in patent publication US20060069132A1, “Azolecarboxamide herbicides” (priority 2004, published 2006).

How the values were obtained:
lambsquarters = test: Test B pre-/postemergence herbicide test; format: in vivo, Chenopodium album; conditions: for Plant response rating, Lambsquarters: preemergence; for Lambsquarters plant response rating: postemergence, visual rating, scale 0 (no effect) to 100 (complete control)
How it was run: (§1)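 Plants compared with untreated controls 13–15 days post-treatment and given a visual 0–100 injury score. Applications: preemergence to seeds; postemergence at 1- to 4-leaf (2–18 cm); paddy species flooded, 2-leaf stage. Vehicle non-phytotoxic, surfactant included.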

rice [1] = test: Test B flooded paddy test; format: in vivo, Oryza sativa; conditions: 1000 g ai/ha, visual rating, scale 0 to 100 (0 no effect, 100 complete control), 13 to 15 days
How it was run: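 Formulated test chemicals went onto postemergence plants measuring 2 to 18 cm, at one to four leaves. For the paddy assay, species had reached two leaves. Scoring took place 13–15 days later by eye, relative to untreated plants, using 0 for no effect up to 100 for full control.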

[2] = system: small flower umbrella sedge; test: Test B flooded paddy test; format: in vivo, Cyperus difformis; conditions: 1000 g ai/ha, visual rating, scale 0 to 100 (0 no effect, 100 complete control), 13 to 15 days
How it was run: (§2)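 Treated at 2-leaf (paddy) or 1–4-leaf, 2–18 cm (postemergence); greenhouse 13–15 d; visual score vs control, 0 none to 100 complete control; dash = not tested.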

large crabgrass = test: Test B pre-/postemergence herbicide test; format: in vivo, Digitaria sanguinalis; conditions: for Plant response rating, Crabgrass, Large: preemergence; for Crabgrass, Large plant response rating: postemergence, visual rating, scale 0 (no effect) to 100 (complete control)
How it was run: as §1

rice [3] = test: Test C flooded paddy test; format: in vivo, Oryza sativa
How it was run: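 Plants were grown to the 1- to 4-leaf stage (2–18 cm) and then treated postemergence, or grown to the 2-leaf stage for the flooded paddy test. They were held in a greenhouse for 12 to 14 days and then scored by eye against controls, where 0 is no effect and 100 is complete control.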

barnyardgrass [4] = test: Test C flooded paddy test; format: in vivo, Echinochloa crus-galli
How it was run: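 Injury scored visually against controls on a 0 (no effect) to 100 (complete control) scale, 12 to 14 days after treatment in greenhouse. Flooded paddy plants treated at 2-leaf stage; postemergence plants at 1- to 4-leaf stage, 2 to 18 cm tall.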

Surinam grass = test: Test B pre-/postemergence herbicide test; format: in vivo, Urochloa decumbens; conditions: for Plant response rating, Surinam Grass: preemergence; for Surinam Grass plant response rating: postemergence, visual rating, scale 0 (no effect) to 100 (complete control)
How it was run: as §1

pigweed = test: Test B pre-/postemergence herbicide test; format: in vivo, Amaranthus retroflexus; conditions: for Plant response rating, Pigweed: preemergence; for Pigweed plant response rating: postemergence, visual rating, scale 0 (no effect) to 100 (complete control)
How it was run: as §1

barnyardgrass [5] = test: Test B flooded paddy test; format: in vivo, Echinochloa crus-galli; conditions: 1000 g ai/ha, visual rating, scale 0 to 100 (0 no effect, 100 complete control), 13 to 15 days
How it was run: as §2

rice [6] = test: Test B pre-/postemergence herbicide test; format: in vivo, Oryza sativa; conditions: 500 g ai/ha; visual rating 0-100, 0 no effect, 100 complete control; preemergence
How it was run: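 Greenhouse pot assay with simultaneous preemergence (treated seed) and postemergence (2–18 cm seedlings) applications of surfactant-containing, non-phytotoxic solvent formulations. Response scored visually 13–15 days later on a 0–100 scale, 100 meaning complete control.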

barnyardgrass [7] = test: Test B pre-/postemergence herbicide test; format: in vivo, Echinochloa crus-galli; conditions: for Plant response rating, Barnyardgrass: preemergence; for Barnyardgrass plant response rating: postemergence, visual rating, scale 0 (no effect) to 100 (complete control)
How it was run: (§3)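 Herbicidal effect was judged by eye on a 0–100 scale after plants stood 13 to 15 days in the greenhouse following pre- or postemergence treatment with surfactant-containing formulations.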

cocklebur = test: Test B pre-/postemergence herbicide test; format: in vivo, Xanthium strumarium; conditions: for Plant response rating, Cocklebur: preemergence; for Cocklebur plant response rating: postemergence, visual rating, scale 0 (no effect) to 100 (complete control)
How it was run: as §3

corn = test: Test B pre-/postemergence herbicide test; format: in vivo, Zea mays; conditions: for Plant response rating, Corn: preemergence; for Corn plant response rating: postemergence, visual rating, scale 0 (no effect) to 100 (complete control)
How it was run: as §1

ducksalad [8] = test: Test C flooded paddy test; format: in vivo, Heteranthera limosa
velvetleaf = test: Test B pre-/postemergence herbicide test; format: in vivo, Abutilon theophrasti; conditions: for Plant response rating, Velvetleaf: preemergence; for Velvetleaf plant response rating: postemergence, visual rating, scale 0 (no effect) to 100 (complete control)
How it was run: as §1

ducksalad [9] = test: Test B flooded paddy test; format: in vivo, Heteranthera limosa; conditions: 1000 g ai/ha, visual rating, scale 0 to 100 (0 no effect, 100 complete control), 13 to 15 days
How it was run: as §2

morningglory = test: Test B pre-/postemergence herbicide test; format: in vivo, Ipomoea coccinea; conditions: for Plant response rating, Morningglory: preemergence; for Morningglory plant response rating: postemergence, visual rating, scale 0 (no effect) to 100 (complete control)
How it was run: as §3

[10] = system: smallflower umbrella sedge; test: Test C flooded paddy test; format: in vivo, Cyperus difformis
giant foxtail = test: Test B pre-/postemergence herbicide test; format: in vivo, Setaria faberi; conditions: for Plant response rating, Foxtail, Giant: preemergence; for Foxtail, Giant plant response rating: postemergence, visual rating, scale 0 (no effect) to 100 (complete control)
How it was run: as §1

[11] = 500 g ai/ha, visual rating 0-100, 0 no effect, 100 complete control
[12] = 125 g ai/ha, 0 to 100 scale, 0 is no effect, 100 is complete control
[13] = 62 g ai/ha, scale 0 to 100 (0 no effect, 100 complete control)
[14] = 125 g ai/ha, scale 0 to 100 (0 no effect, 100 complete control)
[15] = 250 g ai/ha, scale of 0 to 100, 0 is no effect, 100 is complete control
[16] = 500 g ai/ha, visual rating after 12 to 14 days, scale 0 to 100 (0 no effect, 100 complete control)

## C=CCN(C)C(=O)c1ccnc(NC(=O)c2cc(C(C)(C)C)nn2CC)c1 [Compound 159]
lambsquarters; [11]
  Plant response rating, Lambsquarters: 100
lambsquarters; 125 g ai/ha
  Lambsquarters plant response rating: 90
lambsquarters; 500 g ai/ha
  Lambsquarters plant response rating: 90
lambsquarters; [12]
  Plant response rating, Lambsquarters: 100
Rice [1]
  Rice plant response rating: 60
[2]
  Sedge, Umbrella plant response rating: 70
Large crabgrass; [11]
  Plant response rating, Crabgrass, Large: 70
Large crabgrass; 125 g ai/ha
  Crabgrass, Large plant response rating: 0
Large crabgrass; 500 g ai/ha
  Crabgrass, Large plant response rating: 0
Large crabgrass; [12]
  Plant response rating, Crabgrass, Large: 40
Rice [3]; [13]
  Rice plant response rating: 60
Rice [3]; [14]
  Rice plant response rating: 60
Rice [3]; [15]
  Rice plant response rating: 80
Rice [3]; [16]
  Plant response rating, Rice: 90
Barnyardgrass [4]; [13]
  Barnyardgrass plant response rating: 30
Barnyardgrass [4]; 125 g ai/ha, scale of 0 to 100, 0 is no effect, 100 is complete control
  Barnyardgrass plant response rating: 50
Barnyardgrass [4]; [15]
  Barnyardgrass plant response rating: 70
Barnyardgrass [4]; [16]
  Plant response rating, Barnyardgrass: 80
Surinam grass; [11]
  Plant response rating, Surinam Grass: 70
Surinam grass; 125 g ai/ha
  Surinam Grass plant response rating: 0
Surinam grass; 500 g ai/ha
  Surinam Grass plant response rating: 20
Surinam grass; [12]
  Plant response rating, Surinam Grass: 60
pigweed; [11]
  Plant response rating, Pigweed: 100
pigweed; 125 g ai/ha
  Pigweed plant response rating: 80
pigweed; 500 g ai/ha
  Pigweed plant response rating: 80
pigweed; [12]
  Plant response rating, Pigweed: 100
Barnyardgrass [5]
  Barnyardgrass plant response rating: 80
Rice [6]
  Plant response rating, Rice: 70
Barnyardgrass [7]; [11]
  Plant response rating, Barnyardgrass: 90
Barnyardgrass [7]; 125 g ai/ha
  Barnyardgrass plant response rating: 0
Barnyardgrass [7]; 500 g ai/ha
  Barnyardgrass plant response rating: 0
Barnyardgrass [7]; [12]
  Plant response rating, Barnyardgrass: 70
cocklebur; [11]
  Plant response rating, Cocklebur: 100
cocklebur; 125 g ai/ha
  Cocklebur plant response rating: 80
cocklebur; 500 g ai/ha
  Cocklebur plant response rating: 80
cocklebur; [12]
  Plant response rating, Cocklebur: 90
corn; [11]
  Plant response rating, Corn: 0
corn; 125 g ai/ha
  Corn plant response rating: 0
corn; 500 g ai/ha
  Corn plant response rating: 0
corn; [12]
  Plant response rating, Corn: 0
Ducksalad [8]; [13]
  Ducksalad plant response rating: 80
Ducksalad [8]; [14]
  Ducksalad plant response rating: 90
Ducksalad [8]; [15]
  Ducksalad plant response rating: 90
Ducksalad [8]; [16]
  Plant response rating, Ducksalad: 100
velvetleaf; [11]
  Plant response rating, Velvetleaf: 90
velvetleaf; 125 g ai/ha
  Velvetleaf plant response rating: 20
velvetleaf; 500 g ai/ha
  Velvetleaf plant response rating: 70
velvetleaf; [12]
  Plant response rating, Velvetleaf: 80
Ducksalad [9]
  Ducksalad plant response rating: 90
morningglory; [11]
  Plant response rating, Morningglory: 40
morningglory; 125 g ai/ha
  Morningglory plant response rating: 10
morningglory; 500 g ai/ha
  Morningglory plant response rating: 10
morningglory; [12]
  Plant response rating, Morningglory: 30
[10]; [13]
  Sedge, Umbrella plant response rating: 10
[10]; [14]
  Sedge, Umbrella plant response rating: 40
[10]; [15]
  Sedge, Umbrella plant response rating: 60
[10]; [16]
  Plant response rating, Sedge, Umbrella: 80
Giant foxtail; [11]
  Plant response rating, Foxtail, Giant: 60
Giant foxtail; 125 g ai/ha
  Foxtail, Giant plant response rating: 40
Giant foxtail; 500 g ai/ha
  Foxtail, Giant plant response rating: 50
Giant foxtail; [12]
  Plant response rating, Foxtail, Giant: 50
